Literature values, collected in US10603330B2, “Arginase inhibitors as therapeutics” (Mars, Incorporated, priority 2010, dated 2020).

What was measured:
[1] = system: EAE; conditions: animals undergoing experimental autoimmune encephalomyelitis
[2] = system: bacterial arginase (H. pylori); conditions: inhibition of bacterial arginase
[3] = system: central airways responsiveness; conditions: murine chronic asthma model
[4] = system: blood pressure; conditions: spontaneously hypertensive animals

NC(CCCCB(O)O)C(=O)O (stereo not shown) [ABH, amino-6-boronohexanoic acid]
severity of EAE vs control animals [1]: much milder form of EAE

NC(=NCCC[C@H](N)C(=O)O)NO [NOHA]
CD3 expression on T-cells [2]: reestablished CD3 expression on T-cells

N[C@@H](CSCCB(O)O)C(=O)O [S-(2-boronoethyl)-L-cysteine]
methacholine induced responsiveness of the central airways [3]: attenuated

N=C(NO)NCC[C@H](N)C(=O)O [nor-NOHA, N^ω-hydroxy-nor-L-arginine]
blood pressure [4]: lowered blood pressure
